Reference: patent US20250339443A1, “METHOD FOR TREATING OR PREVENTING CALCIUM RELEASE-ACTIVATED CALCIUM CHANNEL OR DISCOIDIN DOMAIN RECEPTOR 2 RELATED DISORDERS OR CONDITIONS” (LumiSTAR Biotechnology, Inc., priority 2023, published 2025)
Entries after “also recorded” stand apart in the source; their conditions may differ.

Legend:
[1] = system: human pulmonary fibroblast (MRC5); assay: TGF-β1-induced activation of human pulmonary fibroblasts (Western blot); format: cell-based; conditions: MRC5, 10 μM co-treatment, 24 hours
Procedure: Cells were co-treated with various compounds (10 μM) and TGF-β1 for 24 hours. Following this, cell lysates were harvested, and the protein expression was assessed by Western blot analysis. FIG. 3D depicts the examination of TGF-β1-induced fibronectin deposition and α-SMA expression in HCF treated with 10 μM of DMSO, BTP2, WRG-28, or Av through immunofluorescence staining. The images were captured using a confocal microscope, the Olympus FV-1000. FIG. 3E, FIG. 3F, and FIG. 3G illustrate the assessment of CRAC channel activity in HCF, MRC5, and rat HSC-T6. These cells were pretreated with 10 μM of BTP2, WRG-28, or Av for 45 min. The evaluation included measuring the second peak of each calcium wave and the rate of entry. […]
Cell lysates were harvested in RIPA buffer (150 mM NaCl, 1 mM EGTA, 50 mM Tris pH 7.4, 10% glycerol, 1% Triton X-100, 1% sodium deoxycholate, 0.1% SDS, and protease inhibitor cocktail) and collected from culture dish with cell scrapers. […] The protein expression levels were assessed by specific primary antibodies, including antibodies against phosphotyrosine (clone 4G10; Millipore), DDR2 (R&D), α-SMA (Sigma), Collagen 1a1 (Boster), E-cadherin (BD Biosciences), SGLT2 (Proteintech), NHE1 (Novus) and β-actin (Clone C4, Millipore), followed by incubating with secondary antibodies conjugated with HRP and detected by ECL kit (Thermo Scientific). […]

Jurkat T cells = assay: Cytokine secretion in T cells (ELISA); format: cell-based, human; conditions: PHA/PMA induction, culture medium
[2] = system: THP-1 derived macrophages; assay: Cytokine secretion in macrophages (ELISA); format: cell-based, human; conditions: IFN-γ/LPS induction, culture medium
[3] = system: UUO-induced renal fibrosis; assay: Unilateral ureteral obstruction (UUO) renal fibrosis model; format: in vivo, mouse; conditions: for UUO-induced downregulation of E-cadherin (kidney, Western blot) / UUO-induced upregulation of integrin β1, DDR2, collagen 1a1, and α-SMA (kidney, Western blot) / area positively stained with fibrillar collagen (Sirius red) / histology: UUO-induced tubular dilation and interstitial expansion (H&E): 5 mg/kg/day for 7 days; for apoptotic tubular cells (TUNEL): 5 mg/kg/day for 7 days during ureter obstruction
Procedure: Surgical ligation was performed on the left ureter of 7-to-8-week-old male mice using a nylon surgical suture. Subsequently, the mice were treated with 5 mg/kg/day of DMSO (control), BTP2, WRG-28, or Av for 7 days. […] FIG. 5B illustrates the evaluation of fibrillar collagen expression levels via Sirius red staining. FIG. 5C presents the measurement of the Sirius red-positive area using Image J. FIG. 5D, FIG. 5E, FIG. 5F, FIG. 5G, and FIG. 5H depict the protein levels of integrin β1, DDR2, Collagen 1a1, α-SMA, and E-cadherin in kidney samples from mice treated with 5 mg/kg/day of BTP2 (FIG. 5D), WRG-28 (FIG. 5F), or Av (FIG. 5H), which were assessed by Western blot analysis. […] FIG. 5K illustrates the evaluation of apoptotic cells from 5-10 pictures in each condition.
Cell lysates were harvested in RIPA buffer (150 mM NaCl, 1 mM EGTA, 50 mM Tris pH 7.4, 10% glycerol, 1% Triton X-100, 1% sodium deoxycholate, 0.1% SDS, and protease inhibitor cocktail) and collected from culture dish with cell scrapers. For tissue sample preparation, half of the kidney tissues were cut into ˜1 mm3 and then put into 500 μl RIPA buffer in 2 ml tubes. Mechanical homogenizers by agitating beads at high speeds for 30 seconds were used for tissue protein extraction. Protein samples in supernatants were collected after centrifuging the tubes at 10000 g for 10 min at 4° C. 20-30 μg protein samples were resolved by 7.5% or 10% SDS-PAGE. The protein expression levels were assessed by specific primary antibodies, including antibodies against phosphotyrosine (clone 4G10; Millipore), DDR2 (R&D), α-SMA (Sigma), Collagen 1a1 (Boster), E-cadherin (BD Biosciences), SGLT2 (Proteintech), NHE1 (Novus) and β-actin (Clone C4, Millipore), followed by incubating with secondary antibodies conjugated with HRP and detected by ECL kit (Thermo Scientific).
Procedures involving animal subjects have been approved by the Institutional Animal Care and Use Committee (IACUC) at the National Laboratory Animal Center. 7-8 weeks old male C57BL/6 mice were obtained from the animal center. Unilateral ureteral obstruction (UUO) was performed by ligating the left ureter and mice were treated with 5 mg/kg/day DMSO, BTP2, WRG-28, or Av for 7 days after ligation. After 7 days, mice were sacrificed and the kidneys were removed and used for analysis. One-quarter of the kidney was fixed by 4% paraformaldehyde and embedded in paraffin or one-quarter of the kidney was embedded in the Tissue-Tek OCT compound. Half of the kidneys are used for protein analysis. In the reversible unilateral ureteral obstruction (RUUO) experiment, the ligated-left ureter was re-connected to the bladder after UUO surgery for 7 days. The compounds, WRG-28 and Av, were injected during ligation (7*/15d) or after ligation was released (7/15*d). To assess the kidney function, the right ureter was ligated the day before leaving mice in the metabolic cage. The urine and blood were collected for blood urea nitrogen (BUN) and creatinine (CRE) test.
Deparaffinize and rehydrate tissue slides were immersed in filtered Harris Hematoxylin for 10 seconds. After extensively washing in tap water, samples were immersed in Alcoholic-Eosin for 2 minutes. The tissue was then dehydrated and mounted by resinous medium and glass coverslips.
Deparaffinize and rehydrate tissue slides were stained with Picrosirius red for one hour, followed by an extensive wash with acidified water. After dehydration through 3 runs of change of 95% ethanol, 2 runs of change of 100% ethanol, and 3 runs of change of xylene, tissue slides were mounted by resinous mounting medium and glass coverslips. […]
The TUNEL assay kit was purchased from Abcam (ab206386). The procedure was carried out following the manufactory's instructions. […]

Compound | upregulation of α-SMA induced by TGF-β1 [1] | secretion of IL-2 in T cells (Jurkat T cells) | secretion of IL-2 in macrophages [2] | secretion of IL-6 in macrophages [2] | secretion of TNF-β in macrophages [2] | UUO-induced downregulation of E-cadherin (kidney, Western blot) [3] | UUO-induced upregulation of integrin β1, DDR2, collagen 1a1, and α-SMA (kidney, Western blot) [3] | area positively stained with fibrillar collagen (Sirius red) [3] | histology: UUO-induced tubular dilation and interstitial expansion (H&E) [3] | apoptotic tubular cells (TUNEL) [3]
Cc1nnsc1C(=O)Nc1ccc(-n2nc(C(F)(F)F)cc2C(F)(F)F)cc1 [BTP2] | suppressed | significantly reduced | significantly reduced | significantly reduced | significantly reduced | reversing | suppressed | significantly reduced | appeared to mitigate the effects caused by UUO | notably reduced
CCNS(=O)(=O)c1ccc(COc2ccc3nc4ccc(=O)cc-4oc3c2)cc1 [WRG-28] | suppressed | significantly reduced | significantly reduced | significantly reduced | significantly reduced | reversing | suppressed | significantly reduced | appeared to mitigate the effects caused by UUO | notably reduced; also recorded: significantly reduced
